*1 amine or outer side, *2 acyl side, *3 side chain or, on linkers, in order; H or OH if unused. Where a SMILES comes first, the peptide text is derived from it. Bridges are numbered along the chain shown (N, C = ends). [ ]: non-standard residue; d: D form. The star is where a group is joined. hPhe(3-Cl-4-CF3) = N[C@@H](CCc1ccc(C(F)(F)F)c(Cl)c1)C(=O)O; NPrPhe(4-CF3) = CCCN[C@@H](Cc1ccc(C(F)(F)F)cc1)C(=O)O; X46 = C=CCCN([C@@H](Cc1ccc(C)cc1)C(=O)[*:2])[*:1]; NMeGly(cPent) = CN[C@H](C(=O)O)C1CCCC1; Hyp = O=C(O)[C@@H]1C[C@@H](O)CN1; NMeD = CN[C@@H](CC(=O)O)C(=O)O; NMeL = CN[C@@H](CC(C)C)C(=O)O; Morpholide = C1CN(*)CCO1; NMeA = CN[C@@H](C)C(=O)O; Ac5c = NC1(C(=O)O)CCCC1; Aze = O=C(O)[C@@H]1CCN1; Ac4c = NC1(C(=O)O)CCC1; Sar = CNCC(=O)O
Key:
HRAS wild-type protein = HRAS wild-type protein (Homo sapiens, UniProt P01112); experiment: Binding to HRAS by surface plasmon resonance (SPR), KD and KD ratio to KRAS
Chain of HRAS wild-type protein (P01112 whole entry): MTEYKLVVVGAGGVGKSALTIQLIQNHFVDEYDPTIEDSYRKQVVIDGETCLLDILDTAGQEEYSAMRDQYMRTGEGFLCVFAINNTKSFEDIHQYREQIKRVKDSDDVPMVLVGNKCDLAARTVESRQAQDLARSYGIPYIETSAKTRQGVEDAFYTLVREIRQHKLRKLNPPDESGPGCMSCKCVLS
How it was run: (§1)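 Each cycle, GDP-bound biotin-Avi RAS was captured (~100–300 RU), compound concentrations were injected low to high for 75 s each at 100 µL/min, then the chip was regenerated. Buffer: HBS pH 7.4, 10 mM MgCl2, 10 µM GDP, 1 mM DTT, 4% DMSO; 30°C. KD from a 1:1 binding model.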

[1] = target: GDP-bound NRAS wild-type protein (Homo sapiens, UniProt P01111); experiment: Binding to NRAS by surface plasmon resonance (SPR), KD and KD ratio to KRAS
Chain of GDP-bound NRAS wild-type protein (P01111 whole entry): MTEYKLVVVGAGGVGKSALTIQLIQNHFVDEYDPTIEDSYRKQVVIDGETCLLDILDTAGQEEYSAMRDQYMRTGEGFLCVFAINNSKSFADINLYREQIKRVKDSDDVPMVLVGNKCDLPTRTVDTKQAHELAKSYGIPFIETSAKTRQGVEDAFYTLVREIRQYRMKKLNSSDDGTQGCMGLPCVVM
How it was run: as §1

[2] = system: human lung cancer strain NCI-H441; assay type: cell-based
How it was run: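 Signal came from […] measured per well once the reagent was added. Beforehand, cells were cultured at 37°C and 5% carbon dioxide on a compound series serially diluted in dimethyl sulfoxide.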

[3] = ratio of KD value for HRAS wild-type protein to KD value for KRAS (SPR)
[4] = ratio of KD value for GDP-bound NRAS wild-type protein to KD value for KRAS (SPR)
[5] = ratio of KD for HRAS wild-type protein to KD for KRAS
[6] = ratio of KD for GDP-bound NRAS wild-type protein to KD for KRAS
[7] = ratio of the KD value with respect to HRAS wild-type protein to the KD value with respect to KRAS
[8] = ratio of the KD value with respect to GDP-bound NRAS wild-type protein to the KD value with respect to KRAS

| SMILES | IC50 [2] | HRAS /KRAS (HRAS wild-type protein; [5]) | NRAS /KRAS [1, 6] | other results |
| --- | --- | --- | --- | --- |
| CCO[C@@H]1C[C@H]2C(=O)NC3(CCC3)C(=O)N(C)[C@@H](C3CCCC3)C(=O)N(C)[C@H](C(=O)N3CCOCC3)CC(=O)N(C)[C@@H](CC(C)C)C(=O)N[C@@H]([C@@H](C)CC)C(=O)N(C)CC(=O)N(C)[C@H]3CCCCCN(C3=O)[C@@H](Cc3ccc(F)c(C)c3)C(=O)N(C)CC(=O)N[C@@H](CCc3cc(F)c(C(F)(F)F)c(F)c3)C(=O)N2C1 [PP0922] | 98.2 nM | B (a compound having 3 or more and less than 10 is denoted as B) | B (a compound having 3 or more and less than 10 is denoted as B) |  |
| CCO[C@@H]1C[C@H]2C(=O)NC3(CC(C)(C)C3)C(=O)N(C)[C@@H](C3CCCC3)C(=O)N(C)[C@H](C3CCC3)CC(=O)N(C)[C@@H](CC3CC3)C(=O)N[C@@H]([C@@H](C)CC)C(=O)N(C)CC(=O)N(C)[C@H]3C/C=C\CCN(C3=O)[C@@H](Cc3ccc(C(F)(F)F)cc3)C(=O)N(C)CC(=O)N[C@@H](CCc3cc(F)c(C(F)(F)F)c(F)c3)C(=O)N2C1 [PP1635] | 36.3 nM |  |  | HRAS /KRAS (HRAS wild-type protein; [3]): A (a compound having 10 or more and less than 20 is denoted as A); NRAS /KRAS [1, 4]: B (a compound having 3 or more and less than 10 is denoted as B) |
| CCO[C@@H]1C[C@H]2C(=O)NC3(CC(C)(C)C3)C(=O)N(C)[C@@H](C3CCCC3)C(=O)N(C)[C@H](C(=O)N3CCCC3)CC(=O)N(C)[C@H]3CCC/C=C/c4ccc(cc4)C[C@@H](C(=O)N(C)CC(=O)N[C@@H](CCc4cc(F)c(C(F)(F)F)c(F)c4)C(=O)N2C1)N1CC/C=C\C[C@@H](C1=O)N(C)C(=O)CN(C)C(=O)[C@H]([C@@H](C)CC)NC3=O [PP2574] | 4.2 nM | A (a compound having 10 or more and less than 20 is denoted as A) | A (a compound having 10 or more and less than 20 is denoted as A) |  |
| CC[C@H](C)[C@@H]1NC(=O)[C@H](CC(C)C)N(C)C(=O)C[C@@H](C(=O)N2CCOCC2)N(C)C(=O)[C@H](C2CCCC2)N(C)C(=O)C2(CCCC2)NC(=O)[C@@H]2CCCN2C(=O)[C@H](CCc2cc(F)c(C(F)(F)F)c(F)c2)NC(=O)CN(C)C(=O)[C@H](Cc2ccc(C(F)(F)F)cc2)N2CCCCC[C@@H](C2=O)N(C)C(=O)[C@H](C)NC1=O [PP0481] | > 1000 nM |  |  | HRAS /KRAS (HRAS wild-type protein; [7]): B (a compound having 3 or more and less than 10 is denoted as B); NRAS /KRAS [1, 8]: B (a compound having 3 or more and less than 10 is denoted as B) |
| CC[C@H](C)[C@@H]1NC(=O)[C@H](CC(C)C)N(C)C(=O)C[C@@H](C(=O)N2CCOCC2)N(C)C(=O)[C@H](C2CCCC2)N(C)C(=O)C2(CCCC2)NC(=O)[C@@H]2CCCN2C(=O)[C@H](CCc2cc(F)c(C(F)(F)F)c(F)c2)NC(=O)CN(C)C(=O)[C@H](Cc2ccc(C(F)(F)F)cc2)N2CCCC[C@@H](C2=O)N(C)C(=O)[C@@H]2CCCN2C1=O [PP0547] | 21.5 nM |  |  | HRAS /KRAS (HRAS wild-type protein; [7]): B (a compound having 3 or more and less than 10 is denoted as B); NRAS /KRAS [1, 8]: B (a compound having 3 or more and less than 10 is denoted as B) |
| CCCN1C(=O)CN(C)C(=O)CN(C)C(=O)[C@H]([C@@H](C)CC)NC(=O)[C@H](CC(C)C)N(C)C(=O)C[C@@H](C(=O)N2CCOCC2)NC(=O)[C@H](C2CCCC2)N(C)C(=O)C2(CCCC2)NC(=O)[C@@H]2C[C@@H](OCC)CN2C(=O)[C@H](CCc2ccc(C(F)(F)F)c(Cl)c2)NC(=O)CN(C)C(=O)[C@@H]1Cc1ccc(C(F)(F)F)cc1 [PP0323] ([NMeL]I[Sar][Sar][NPrPhe(4-CF3)][Sar][hPhe(3-Cl-4-CF3)][Hyp](Et)[Ac5c][NMeGly(cPent)]D-Morpholide; lactam N-11) | 64 nM | B (a compound having 3 or more and less than 10 is denoted as B) | B (a compound having 3 or more and less than 10 is denoted as B) |  |
| CCO[C@@H]1C[C@H]2C(=O)NC3(CCC3)C(=O)N(C)[C@@H](C(CC)CC)C(=O)N(C)[C@H](C(=O)N3CCCC3)CC(=O)N(C)[C@H]3CCCC/C=C/c4ccc(cc4)C[C@@H](C(=O)N(C)CC(=O)N[C@@H](CCc4ccc(Cl)c(Cl)c4)C(=O)N2C1)N1CC/C=C\C[C@@H](C1=O)N(C)C(=O)CN(C)C(=O)[C@H]([C@@H](C)CC)NC3=O [PP3047] | 6.1 nM | A (a compound having 10 or more and less than 20 is denoted as A) | AA (a compound having 20 or more is denoted as AA) |  |
| CCO[C@@H]1C[C@H]2C(=O)NC3(CCC3)C(=O)N(C)[C@@H](C3CCCC3)C(=O)N(C)[C@H](C(=O)N3CCOCC3)CC(=O)N(C)[C@@H](CC)C(=O)N[C@@H]([C@@H](C)CC)C(=O)N(C)CC(=O)N(C)[C@H]3CC/C=C(/C)CN(C3=O)[C@@H](Cc3ccc(C(F)(F)F)cc3)C(=O)N(C)CC(=O)N[C@@H](CCc3cc(F)c(C(F)(F)F)c(F)c3)C(=O)N2C1 [PP1335] | 736 nM |  |  | HRAS /KRAS (HRAS wild-type protein; ratio of KD with respect to HRAS wild-type protein to KD with respect to KRAS): B (a compound having 3 or more and less than 10 is denoted as B); NRAS /KRAS ([1]; ratio of KD with respect to GDP-bound NRAS wild-type protein to KD with respect to KRAS): B (a compound having 3 or more and less than 10 is denoted as B) |

Now from value to compound, other results behind:

| IC50 [2] | SMILES | HRAS /KRAS (HRAS wild-type protein; [5]) | NRAS /KRAS [1, 6] | other results |
| --- | --- | --- | --- | --- |
| 24.3 nM | CC[C@H](C)[C@@H]1NC(=O)[C@H](CC)N(C)C(=O)C[C@@H](C(=O)N(CC)CC)N(C)C(=O)[C@H](C2CCCC2)N(C)C(=O)C2(CC(C)(C)C2)NC(=O)[C@@H]2C[C@@H](C)CN2C(=O)[C@H](CCc2ccc(C(F)(F)F)c(OC)c2)NC(=O)CN(C)C(=O)[C@H](Cc2ccc(C)cc2)N2CC/C=C\C[C@@H](C2=O)N(C)C(=O)CN(C)C1=O [PP1841] |  |  | HRAS /KRAS (HRAS wild-type protein; [3]): A (a compound having 10 or more and less than 20 is denoted as A); NRAS /KRAS [1, 4]: AA (a compound having 20 or more is denoted as AA) |
| 16.8 nM | CCCN1C(=O)CN(C)C(=O)CN(C)C(=O)[C@H]([C@@H](C)CC)NC(=O)[C@H](CC(C)C)N(C)C(=O)C[C@@H](C(=O)N2CCOCC2)N(C)C(=O)[C@H](C2CCCC2)N(C)C(=O)C2(CCC2)NC(=O)[C@H](C)N(C)C(=O)[C@H](CCc2ccc(C(F)(F)F)c(Cl)c2)NC(=O)CN(C)C(=O)[C@@H]1Cc1ccc(C(F)(F)F)cc1 [PP1916] ([NMeL]I[Sar][Sar][NPrPhe(4-CF3)][Sar][hPhe(3-Cl-4-CF3)][NMeA][Ac4c][NMeGly(cPent)][NMeD]-Morpholide; lactam N-11) |  |  | HRAS /KRAS (HRAS wild-type protein; [7]): C (A compound having a KD ratio of 0.1 or more and less than 3 is denoted as C); NRAS /KRAS [1, 8]: B (a compound having 3 or more and less than 10 is denoted as B) |
| 18.3 nM | CC[C@H](C)[C@@H]1NC(=O)[C@H](CC(C)C)N(C)C(=O)C[C@@H](C(=O)N(CC)CC)N(C)C(=O)[C@H](C2CCCC2)N(C)C(=O)C2(CCC2)NC(=O)[C@@H]2C[C@H](C)CN2C(=O)[C@H](CCc2ccc(C(F)(F)F)c(OC)c2)NC(=O)CN(C)C(=O)[C@H](Cc2ccc(C)cc2)N2CC/C=C\C[C@@H](C2=O)N(C)C(=O)CN(C)C1=O [PP1885] |  |  | HRAS /KRAS (HRAS wild-type protein; [3]): A (a compound having 10 or more and less than 20 is denoted as A); NRAS /KRAS [1, 4]: AA (a compound having 20 or more is denoted as AA) |
| 13.7 nM | CC[C@H](C)[C@@H]1NC(=O)[C@H](CC2CC2)N(C)C(=O)C[C@@H](C(=O)N(C)C)N(C)C(=O)[C@H](C2CCCC2)N(C)C(=O)C2(CCCC2)NC(=O)[C@@H]2C[C@H](C)CN2C(=O)[C@H](CCc2cc(F)c(C(F)(F)F)c(F)c2)NC(=O)CN(C)C(=O)[C@H](Cc2ccc(C(F)(F)F)cc2)N2CC/C=C\C[C@@H](C2=O)N(C)C(=O)CN(C)C1=O [PP1511] |  |  | HRAS /KRAS (HRAS wild-type protein; [3]): A (a compound having 10 or more and less than 20 is denoted as A); NRAS /KRAS [1, 4]: AA (a compound having 20 or more is denoted as AA) |
| 5.5 nM | C=CCCN1C(=O)[C@@H]2CCN2C(=O)[C@H](C)N(C)C(=O)[C@H]([C@@H](C)CC)NC(=O)[C@H](CC(C)C)N(C)C(=O)C[C@@H](C(=O)N2CCOCC2)N(C)C(=O)[C@H](C2CCCC2)N(C)C(=O)C2(CCCC2)NC(=O)[C@@H]2CCCN2C(=O)[C@H](CCc2ccc(C(F)(F)F)c(Cl)c2)NC(=O)CN(C)C(=O)[C@@H]1Cc1ccc(C)cc1 [PP0089] ([NMeL]I[NMeA][Aze][X46][Sar][hPhe(3-Cl-4-CF3)]P[Ac5c][NMeGly(cPent)][NMeD]-Morpholide; lactam N-11) | B (a compound having 3 or more and less than 10 is denoted as B) | C (A compound having a KD ratio of 0.1 or more and less than 3 is denoted as C) |  |
| 14.1 nM | CCC[C@H]1C(=O)N[C@@H]([C@@H](C)CC)C(=O)N(C)CC(=O)N(C)[C@H]2C/C=C\CCN(C2=O)[C@@H](Cc2ccc(C)cc2)C(=O)N(C)CC(=O)N[C@@H](CCc2cc(F)c(C(F)(F)F)c(F)c2)C(=O)N2C[C@H](OCC)C[C@H]2C(=O)NC2(CC(C)(C)C2)C(=O)N(C)[C@@H](CC(F)(F)F)C(=O)N(C)[C@H](C(=O)N(C)C)CC(=O)N1C [PP2993] | A (a compound having 10 or more and less than 20 is denoted as A) | A (a compound having 10 or more and less than 20 is denoted as A) |  |
| 1.6 nM | CCCN1C(=O)CN(C)C(=O)CN(C)C(=O)[C@H]([C@@H](C)CC)NC(=O)[C@H](CC(C)C)N(C)C(=O)C[C@@H](C(=O)N2CCOCC2)N(C)C(=O)[C@H](C2CCCC2)N(C)C(=O)C2(CCCC2)NC(=O)[C@@H]2C[C@@H](OCC)CN2C(=O)[C@H](CCc2ccc(C(F)(F)F)c(Cl)c2)NC(=O)CN(C)C(=O)[C@@H]1Cc1ccc(C(F)(F)F)cc1 [PP0233] ([NMeL]I[Sar][Sar][NPrPhe(4-CF3)][Sar][hPhe(3-Cl-4-CF3)][Hyp](Et)[Ac5c][NMeGly(cPent)][NMeD]-Morpholide; lactam N-11) | C (A compound having a KD ratio of 0.1 or more and less than 3 is denoted as C) | B (a compound having 3 or more and less than 10 is denoted as B) |  |
